For 67 compounds, viability results are on record in publication PMC12040169 (PLOS Biology, 2025).

As usually defined, the viability is a read-out of living cells in per cent, often relative to untreated cells.

The nature of the series: in vitro. The following applies: human, hela cells, % viability.
With `CC(=O)N1CCC2(C/C=C/C[C@H]3CN(C(=O)Cc4cccc(F)c4)CC[C@H]3NC(=O)CNC2=O)CC1` [CBK292103], the viability at 28.5 h, 10 µM is 93.6%.
The same measure for `O=C1N[C@H]2CCCN(C(=O)c3cncs3)[C@H]2CCCCCOc2ccccc21` [CBK292106]: 98.2%; for `COc1ccccc1CN1CC[C@H]2NC(=O)CNC(=O)C3(C/C=C/C[C@H]2C1)CCN(C(C)=O)CC3` [CBK292107]: 111%; for `CC(=O)N1CCC2(C/C=C/C[C@H]3CN(C(=O)CC4CCOCC4)CC[C@H]3NC(=O)CNC2=O)CC1` [CBK292109]: 98.8%.
For `CC(=O)N1CCC2(C/C=C/C[C@H]3CN(C(=O)CCC4CCCC4)CC[C@H]3NC(=O)CNC2=O)CC1` [CBK292111], the viability at 28.5 h, 10 µM worked out at 87%.
The same measure for `CN1C(=O)c2ccccc2OCCCCC[C@H]2[C@@H]1CCCN2C(=O)c1ccccc1Cn1cncn1` [CBK292114]: 110%; for `Cc1noc(C)c1CCC(=O)N1CC[C@H]2NC(=O)COc3ccccc3C/C=C/C[C@H]2C1` [CBK292115]: 110%; for `O=C1COc2ccccc2C/C=C/C[C@H]2CN(C(=O)CN3CCCCCC3=O)CC[C@H]2N1` [CBK292116]: 89.7%.
The same measure for `CC(=O)NC1(CC(=O)N2CC[C@H]3NC(=O)COc4ccccc4C/C=C/C[C@H]3C2)CCCCC1` [CBK292117]: 91.3%.
With `CN1C(=O)COc2ccccc2CCCC[C@@H]2[C@H]1CCCN2C(=O)CNS(C)(=O)=O` [CBK292118], the viability at 28.5 h, 10 µM was 113%.
For the compound `CC(=O)N1CC[C@H]2NC(=O)CNC(=O)C3(CCCC[C@H]2C1)CCN(Cc1ccc(Cl)cc1)CC3` [CBK292119], the viability at 28.5 h, 10 µM turned out to be 90.5%.
As for `CC(=O)N1CC[C@H]2NC(=O)CNC(=O)C3(CCCC[C@H]2C1)CCN(C(=O)CN1CCCCC1)CC3` [CBK292120], the figure is 104%; as for `CC(=O)N1CCC2(CCCC[C@H]3CN(C(=O)C(C)C)CC[C@@H]3NC(=O)CNC2=O)CC1` [CBK292121], 102%; as for `Cn1cnc(C(=O)N2CCC[C@@H]3NC(=O)c4ccccc4OCCCCC[C@@H]32)c1` [CBK292122], 114%.
The same measure for `CS(=O)(=O)NCC(=O)N1CCC2(CCCCOc3ccccc3C(=O)NCCNC2=O)CC1` [CBK292123]: 112%; for `O=C1COc2ccccc2C/C=C/CC2(CCN(CC(=O)N3CCCC3)CC2)CN1` [CBK292126]: 93.7%.
As for `O=C1COc2ccccc2C/C=C/CC2(CCN(C(=O)CCc3cccnc3)CC2)CN1` [CBK292127], the figure is 90.8%; as for `O=C1COc2ccccc2C/C=C/CC2(CCN(CC3CCOCC3)CC2)CN1` [CBK292128], 104%.
For the compound `CC(=O)N1CCC[C@H]2NC(=O)CNC(=O)C3(C/C=C/C[C@H]21)CCN(CC1CCC1)CC3` [CBK292129], the viability at 28.5 h, 10 µM was 103%.
With `O=C1COc2ccccc2C/C=C/CC2(CCN(C(=O)CCn3ccnc3)CC2)CN1` [CBK292131], the viability at 28.5 h, 10 µM worked out at 102%.
Regarding `O=C1CNC(=O)C2(C/C=C/C[C@H]3COCC[C@@H]3N1)CCN(Cc1ccc(Cl)cn1)CC2` [CBK292132], the viability at 28.5 h, 10 µM came out at 91%.
Turning to `CC(=O)N1CCC[C@H]2NC(=O)CNC(=O)C3(C/C=C/C[C@H]21)CCN(CC(N)=O)CC3` [CBK292135], the viability at 28.5 h, 10 µM worked out at 84.4%.
In the case of `O=C1CNC(=O)C2(C/C=C/C[C@H]3COCC[C@@H]3N1)CCN(CC(=O)N1CCCCC1)CC2` [CBK292137], the viability at 28.5 h, 10 µM turned out to be 111%.
For `CC(=O)N1CCC2(C/C=C/C[C@H]3CN(CCO)CC[C@H]3NC(=O)CNC2=O)CC1` [CBK292139], the viability at 28.5 h, 10 µM turned out to be 92.8%.
As for `CC(=O)N1CCC2(C/C=C/C[C@H]3CN(CCCc4ccccc4)CC[C@H]3NC(=O)CNC2=O)CC1` [CBK292140], the figure is 90.9%; as for `CC(=O)N1CC[C@H]2NC(=O)CNC(=O)C3(CCCC[C@H]2C1)CCNCC3` [CBK292142], 93.8%; as for `COCCN1CCC2(C/C=C/C[C@H]3COCC[C@H]3NC(=O)CNC2=O)CC1` [CBK292145], 116%.
The same measure for `CCC(=O)N1CCC2(CCCC[C@H]3CN(C(C)=O)CC[C@H]3NC(=O)CNC2=O)CC1` [CBK292147]: 96.6%.
Take `CN1C(=O)COc2ccccc2CCCC[C@@H]2[C@H]1CCCN2C(=O)Cn1ccnc1` [CBK292152]: the viability at 28.5 h, 10 µM was found to be 110%.
In the case of `Cc1nn(C)cc1C(=O)N1CCC2(C/C=C/CCOc3ccccc3C(=O)NCCCNC2=O)CC1` [CBK292154], the viability at 28.5 h, 10 µM is 110%.
As for `CN1C(=O)COc2ccccc2C/C=C/C[C@H]2NCCC[C@H]21` [CBK292156], the viability at 28.5 h, 10 µM is 80.9%.
For the compound `CC(C)C(=O)N1CCC2(C/C=C/C[C@H]3COCC[C@H]3NC(=O)CNC2=O)CC1` [CBK292157], the viability at 28.5 h, 10 µM was 95.8%.
As to `COCC(=O)N1CCC2(C/C=C/C[C@H]3COCC[C@@H]3NC(=O)CNC2=O)CC1` [CBK292158], the viability at 28.5 h, 10 µM worked out at 95.2%.
As for `O=C1NCC2(C/C=C/CCOc3ccccc31)CCN(Cc1ccccn1)CC2` [CBK292159], the figure is 84.2%.
In the case of `O=C1N[C@H]2CCCN(C(=O)CCN3CCCC3)[C@H]2C/C=C/CCOc2ccccc21` [CBK292162], the viability at 28.5 h, 10 µM was 112%.
On to `CC(=O)N1CCC2(CCCC[C@H]3CN(Cc4coc(C)n4)CC[C@@H]3NC(=O)CNC2=O)CC1` [CBK292165], for which the viability at 28.5 h, 10 µM stood at 101%.
As for `CC(=O)N1CCC2(CCCC[C@H]3CNCC[C@@H]3NC(=O)CNC2=O)CC1` [CBK292167], the figure is 91.7%; as for `CN1C(=O)COc2ccccc2C/C=C/C[C@@H]2[C@H]1CCCN2C(=O)CCCNc1ncccn1` [CBK292168], 112%; as for `O=C1NCCNC(=O)C2(C/C=C/COc3ccccc31)CCCNC2` (stereo not shown) [CBK292171], 115%.
The same measure for `CC(=O)N1CCC[C@H]2NC(=O)CNC(=O)C3(C/C=C/C[C@H]21)CCNCC3` [CBK292173]: 89.8%; for `CC(=O)N1CCC[C@H]2NC(=O)CNC(=O)C3(C/C=C/C[C@H]21)CCN(C(=O)C1CCC1)CC3` [CBK292177]: 109%; for `O=C1NCC2(C/C=C/CCOc3ccccc31)CCNCC2` [CBK292178]: 104%.
Consider `Cn1ccnc1CN1CCC2(C/C=C/Cc3ccccc3OCC(=O)NCCNC2=O)CC1` [CBK292180], for which the viability at 28.5 h, 10 µM was 95.7%.
As for `CNCC(=O)N1CCC2(CCCC[C@H]3CN(C(C)=O)CC[C@H]3NC(=O)CNC2=O)CC1` [CBK292181], the figure is 79.3%.
Regarding `Cn1nccc1C(=O)N1CCC2(C/C=C/COc3ccccc3C(=O)NC[C@@H](Cc3ccccc3)NC2=O)CC1` [CBK292183], the viability at 28.5 h, 10 µM was 99.8%.
The same measure for `CN(C)C(=O)CN1CCC2(C/C=C/COc3ccccc3C(=O)NC[C@@H](Cc3ccccc3)NC2=O)CC1` [CBK292185]: 107%; for `O=C1N[C@@H]2CCN(Cc3cnccn3)C[C@H]2C/C=C/CC2(CCOCC2)C(=O)N[C@H]1Cc1ccccc1` [CBK292189]: 97.3%; for `CC(=O)N[C@@H](CC[S+](C)[O-])C(=O)N1CCC2(C/C=C/C[C@@H]3COCC[C@@H]3NC(=O)[C@@H](CC(C)C)NC2=O)CC1` (stereo partly shown) [CBK292192]: 105%.
The same measure for `COc1ccc(C(=O)N2CCC[C@H]3NC(=O)COc4ccccc4C(=O)N[C@@H]4CCOC[C@@H]4C/C=C/C[C@@H]32)cc1` [CBK292194]: 102%.
As for `CC(=O)N1CCC[C@@H]1C(=O)N1CC[C@@H]2NC(=O)[C@H](Cc3ccccc3)NC(=O)C3(C/C=C/C[C@@H]2C1)CCOCC3` [CBK292195], the figure is 104%; as for `CC(C)C[C@H]1NC(=O)C2(C/C=C/C[C@@H]3COCC[C@@H]3NC1=O)CCN(C(=O)[C@@H](N)Cc1c[nH]c3ccccc13)CC2` [CBK292200], 109%; as for `CC(C)[C@@H](N)C(=O)N1CC[C@@H]2NC(=O)[C@@H](Cc3ccccc3)NC(=O)C3(C/C=C/C[C@H]2C1)CCOCC3` [CBK292201], 112%.
Consider `N[C@@H](Cc1c[nH]c2ccccc12)C(=O)N1CC[C@H]2NC(=O)[C@@H](Cc3ccccc3)NC(=O)C3(C/C=C/C[C@@H]2C1)CCOCC3` [CBK292202], for which the viability at 28.5 h, 10 µM turned out to be 115%.
Take `CC(=O)N[C@@H](Cc1c[nH]cn1)C(=O)N1CC[C@H]2NC(=O)[C@H](Cc3ccccc3)NC(=O)C3(C/C=C/C[C@H]2C1)CCOCC3` [CBK292206]: the viability at 28.5 h, 10 µM was determined as 116%.
As for `COCCOC(=O)C1=C(C)NC2=C(C(=O)CC(c3ccc(OC)cc3)C2)C1c1ccc(F)cc1` (stereo not shown) [CBK293921], the figure is 88.9%.
The same measure for `COc1ccc(C2CC(=O)C3=C(C2)NC(C)=C(C#N)C3c2cccc(F)c2)cc1` (stereo not shown) [CBK293922]: 91.6%; for `O=C(COC(=O)c1cc(-c2ccc(Cl)cc2)nc2ccccc12)c1cccc([N+](=O)[O-])c1` [CBK293923]: 83%.
As for `Cc1ccc(OCC(=O)Nc2ncc(Cc3ccc(F)cc3)s2)cc1` [CBK293930], the figure is 82.2%; as for `COc1ccccc1N1CCN(c2cc(N3CCNCC3)ccc2[N+](=O)[O-])CC1` [CBK293931], 85.1%.
As for `Cc1ccc(S(=O)(=O)n2c(SCc3ccccc3)nc3ccccc32)cc1` [CBK293933], the viability at 28.5 h, 10 µM amounted to 104%.
For `Cc1ccc(OCC(=O)N2N=C(CC(C)C)CC2(O)C(F)(F)F)cc1C` (stereo not shown) [CBK293935], the viability at 28.5 h, 10 µM is 91.5%.
With `CC1(C)CC(=O)c2cc(C(N)=O)c(=O)n(-c3ccc(Cl)cc3)c2C1` [CBK293936], the viability at 28.5 h, 10 µM is 88.8%.
As for `CCCCC(=O)NC(c1ccc(Cl)cc1)c1cc([N+](=O)[O-])c2cccnc2c1O` (stereo not shown) [CBK293938], the viability at 28.5 h, 10 µM is 90.1%.
As to `COc1ccc(C(NC(=O)CCc2ccccc2)c2ccc3cccnc3c2O)cc1` (stereo not shown) [CBK293942], the viability at 28.5 h, 10 µM was 86%.
In the case of `COc1ccc(NC(=O)N2CCCCC2c2cccnc2)cc1` (stereo not shown) [CBK293947], the viability at 28.5 h, 10 µM came to 102%.
On to `CC(=O)Oc1ccc2c(=O)c(C3NC(C(=O)O)Cc4c3[nH]c3ccccc43)coc2c1` (stereo not shown) [CBK293948], for which the viability at 28.5 h, 10 µM was found to be 120%.
As for `COc1ccc(CNc2cnc3ccccc3c2)c(O)c1` [CBK293951], the viability at 28.5 h, 10 µM amounted to 87.5%.
